“Also recorded” adds a separate entry of the source.
Key:
[1] = tested on: GPR109A expression in human colon cancer cell lines; experiment: GPR109A mRNA expression in colon cancer cell lines by semi-quantitative RT-PCR; format: cell-based; settings: 2 μg/ml, 72 h
Method: HPRT1 mRNA was used as an internal control. […] Steady-state levels of mRNAs for DNMT1, DNMT3a, DNMT3b, and HPRT1 were monitored in normal human colon tissues and in human colon cancer tissues by semi-quantitative RT-PCR. […] Three different colon cancer cell lines were treated with procainamide, a specific inhibitor of DNMT1, and the expression of GPR109A was monitored in cells treated with or without the inhibitor.

[2] = tested on: LPS-induced NF-κB promoter activity in KM12L4 cells with ectopic expression of GPR109A; experiment: LPS-induced NF-κB promoter reporter in KM12L4 cells transfected with human GPR109A cDNA; format: cell-based; settings: ligand 1 mM 8 h, LPS 100 ng/ml 4 h
Excerpt: (§1) The anti-inflammatory effect of butyrate was monitored in colonic cells by its ability to suppress LPS-induced activation of NF-κB promoter with luciferase as the reporter. The participation of SLC5A8 and GPR109A in mediating the effects of extracellular butyrate was differentiated first by using specific ligands. If SLC5A8 is involved in the process, the transporter-facilitated entry of butyrate followed by inhibition of histone deacetylases (HDACs) inside the cells would be responsible for the effects. If GPR109A is involved in the process, the activation of the receptor by extracellular butyrate would be responsible for the effects. […] In these experiments, cells were first transfected with the construct carrying the NF-κB-luciferase, pretreated with GPR109A ligands (1 mM) for 8 h and then exposed to LPS (100 ng/ml) for 4 h. Following the treatment, cell lysates were used to measure luciferase activity as a read-out for activation of NF-κB.
(§2) The cells were transfected with either empty vector or human GPR109A cDNA. […] We cloned the human GPR109A cDNA by RT-PCR using mRNA prepared from human colon, and subcloned the RT-PCR product into pcDNA vector under the control of the cytomegalovirus promoter. The insert was sequenced to confirm its molecular identity. […] The activation of the receptor was monitored by measuring the activity of a K^+-channel.

[3] = tested on: LPS-induced activation of NF-κB promoter in vector-transfected KM12L4 cells; experiment: LPS-induced NF-κB promoter reporter in vector-transfected KM12L4 cells (no GPR109A); format: cell-based, human; settings: ligand 1 mM 8 h, LPS 100 ng/ml 4 h
Excerpt: as §1, §2

[4] = tested on: bone marrow-derived dendritic cells; experiment: Development of bone marrow-derived dendritic cells (FACS); format: cell-based; settings: mouse bone marrow cells, ligand 1 mM, 4 days
Method: In these experiments, mouse bone marrow cells were collected and cultured in the presence of various ligands (1 mM) for 4 days. Following this, FACS (fluorescence activated cell sorting) was used to identify the fraction of various immune cell types in the sample.

[5] = tested on: LPS-induced NF-κB promoter activity in HCT116-DNMT1−/− cells; settings: GPR109A expressed
Excerpt: as §1
(§3) Additionally, two different isogenic cell lines of the human colon cancer cell line HCT116, one with normal expression of the DNA methyltransferase I(DNMT1) and the other with deletion of the gene coding for the enzyme (HCT116-DNMT1^−/−) were used.

[6] = tested on: LPS-induced NF-κB promoter activity in HCT116 cells; settings: HCT116, no expression of GPR109A
Excerpt: as §1, §3

[7] = tested on: LPS-induced activation of NF-κB promoter in CCD841 cells; settings: ligand 1 mM 8 h, then LPS 100 ng/ml 4 h, luciferase
Excerpt: as §1

[8] = tested on: vector-transfected KM12L4 cells; settings: 0.5 mM, 24 h
[9] = tested on: Colon cancer cell line SW480; experiment: Apoptosis of colon cancer cells with octanoate (propidium iodide FACS); format: cell-based; settings: human colon cancer cell line (SW480); varying concentrations, 24 or 48 h
Method: Colon cancer cell line SW480 was cultured in the presence of varying concentrations of octanoate for 24 or 48 h, and then cells were fixed in ethanol, stained with propidium iodide, and subjected to FACS analysis to determine the percent of cells undergoing apoptosis. Sub G0/1 cells were quantitated using Cell Quest program and values are expressed as mean+SEM.

[10] = tested on: human breast cancer cell line; experiment: Apoptosis of human breast cancer cell line with octanoate; format: cell-based; settings: human breast cancer cell line expressing GPR109B
Excerpt: The GPR109B receptor isoform is unique to humans. Its expression is not reduced in cancer. Its ligand specificity is different from that of GPR109A. One of the ligands which has relatively high affinity for GPR109B is the medium-chain fatty acid octanoate. This ligand was used to see if this receptor isoform can be used to kill tumor cells. […] Two cancer cell lines, a human colon cancer cell line and a human breast cancer cell line were studied. Both these cell lines express GPR109B because the expression of this receptor isoform is not affected in cancer. […] Thus, another embodiment provides a method for treating cancer by administering to a subject an effective amount of a ligand for GPR109B to promote apoptosis in tumor cells optionally in combination with a second therapeutic agent. A preferred ligand is octanoate or a derivative thereof.

Nc1ncn([C@@H]2O[C@H](CO)[C@@H](O)[C@H]2O)c(=O)n1 [5-azacytidine]
effect on GPR109A expression [1]: the expression of the gene is induced
effect on GPR109A expression ([1]; listed as 5′-azacytidine): re-activates the expression of the receptor

CC(C)n1nnc2cc(C(=O)O)ccc21 [IPBT, 1-isopropyl-benzotriazole-5-carboxylic acid]
effect on LPS-induced NF-κB promoter activity [2]: did not have any effect
effect on LPS-induced activation of NF-κB promoter [3]: did not have any effect

CC(=O)O [acetate]
effect on development of dendritic cells [4]: had no effect

CC1(c2ccccc2)OC(C(=O)O)=CC1=O (stereo not drawn) [acifran]
effect on LPS-induced NF-κB promoter activity [2]: marked suppression
effect on LPS-induced NF-κB promoter activity [5]: suppressed LPS-induced promoter activity
effect on LPS-induced NF-κB promoter activity [6]: none of these compounds had any significant effect
effect on LPS-induced activation of NF-κB promoter [3]: did not have any effect

O=C(O)c1cccnc1 [nicotinate, nicotinic acid]
effect on development of dendritic cells [4]: had no effect
effect on LPS-induced activation of NF-κB promoter [7]: able to block LPS-induced activation of NF-κB promoter
change in expression of genes involved in apoptosis and cell cycle [8]: do not exhibit any change in the expression of various genes

CCCCCCCC(=O)O [octanoate]
apoptosis [9]: induced apoptosis; also recorded: leads to apoptosis in a dose-dependent manner
apoptosis [10]: leads to apoptosis in a dose-dependent manner

CCC(=O)O [propionate]
effect on development of dendritic cells [4]: able to block the development
